Assay results reported in patent US4059700A, “Dermal toxicity of solid compositions containing a montmorillonite type of clay and an organophosphorus pesticide” (priority 1976, dated 1977).

Experiments:
insects and nematodes = details: food and fodder crops; cited from earlier work
mammals = details: ingestion, inhalation or dermal absorption; cited from earlier work
[1] = Dermal toxicity of granular compositions (Example 2, Table I); details: rabbit, in vivo, topical or ocular, male albino rabbits, 24 h contact, 14 days observation, read-out: LD50 in mg/kg Body Weight
Description: Dermal toxicity of granular compositions of the present invention as compared to conventional granular compositions containing the same pesticide, using male albino rabbits as test animal.
1. Five male albino rabbits weighing approximately 2.2 to 3.5 kilograms are selected for each dosage level. The hair is shaved from the entire trunk.
2. Saran tubing or "Vinylite" film, VU 1900, 12 inches wide, 0.04 millimeters thick and of suitable length to fit around the rabbit.
3. One felt cloth bandage measuring approximately 9×18 inches.
4. Four pieces of 11/2 inches adhesive tape approximately 14 inches long.
1. The granular composition to be tested is placed in the center of the plastic film and is moistened with water.
2. The rabbits underside is moistened with water and the animals placed belly down on the material. The plastic film is then bought up and around the animal and secured at each end with strips of adhesive tape.
3. The felt cloth is then placed under the belly and brought up and around the animal and secured to the body with the remaining two strips of adhesive tape.
1. The animal is placed on the plastic film and is wrapped and the film secured with adhesive tape.
2. The test material is then injected under the plastic with an appropriate size needle and syringe.
3. […]
By the above procedure the dermal toxicity of the granular compositions prepared in Example 1 is determined. […]

CCOP(=S)(OCC)SCSC(C)(C)C
control of a broad spectrum of insects and nematodes (insects and nematodes): highly effective
toxicity to mammals when introduced into the mammalian circulatory system (mammals): extremely toxic to mammals
LD50 at 336 h [1]: 1 to 1.4 mg/kg
